Measurements from patent publication US8080417B2, “Methods of ex vivo hematopoietic stem cell expansion by co-culture with mesenchymal cells” (priority 2004, dated 2011).

Experiments:
[1] = tested on: hematopoietic stem cells (mononuclear cells co-cultured with mesenchymal cells); experiment: Mesenchymal-MNC co-culture at 21 days +/- Nicotinamide 5 mM: cell counts and surface markers; format: cell-based, human
Excerpt: Isolation of mesenchymal cells: Mononuclear cells containing mesenchymal cells from bone marrow were obtained from a […] prepared by negative immuno-depletion of CD3, CD14, CD19, CD38, CD66b, and glycophorin-A positive cells using a commercially available kit (RosetteSep®, StemCell Technologies, Vancouver, BC, Canada), as per manufacturer's instructions. […] Blood 90 Suppl. 1 347b, 1997 (abst)]. The immuno-depleted cells were harvested, and then either further separated by layering on a Ficoll-Paque (Amersham-Pharmacia, Piscataway, N.J., USA) density gradient column (1.077 g/cm^3) and centrifuged at 400×g for 30 minutes, or cultured without further separation. The collected cells were plated in T75 non-coated tissue culture flasks (Nunc) at a concentration of 2×10^5 cells/ml, in expansion medium containing: low glucose DMEM and 20% Fetal Bovine Serum (FBS, Hyclone, Logan, Utah, USA) supplemented with or without 10 ng/ml bFGF (Pepro Tech Inc, Rocky Hill N.J.), 0.05 mg/ml gentamicin (Sigma Inc., St. Louis, Mo.) and 2 mM L-glutamine (Biological Industries, Israel). Selected cells were allowed to adhere for 3-4 days and non-adherent cells were washed out with medium changes. Some experiments were initiated as well with the entire MNC fraction.
Maintenance and expansion of mesenchymal cells: When adherent mesenchymal cells reached approximately 80-90% confluence, they were detached with 0.25% trypsin-EDTA (Sigma, Inc. St Louis, Mo.), washed twice in DMEM and 20% Fetal Bovine Serum, with centrifugation, 400 g, 5 min., and re-plated at a 1:2 to 1:1000 dilution under the same culture conditions.
(§1) Mesenchymal hematopoietic co-cultures: Mesenchymal cultures were established as described above. After reaching confluence, the mesenchymal medium was discarded and replaced with fresh, hematopoietic supportive medium containing early acting or early and late acting cytokines, and hematopoietic cells selected from; cord blood, bone marrow, placenta or peripheral blood mononuclear cells or purified progenitor cells (CD34+ or CD133+ cells), with or without a modulator of cell fate. Mononuclear or purified stem and/or progenitor cells were isolated and prepared for ex-vivo culture as previously described (see, above, or, for example, PCT IL05/000753). At different intervals the non-adherent cells were harvested, analyzed for hematopoietic potential by functional analysis (clonogenic assay, CFU, etc), and re-cultured in a stroma-free medium. The stromal layer was then re-supplemented with fresh hematopoietic supportive medium (medium including 10% FCS, SCF, TPO, FLT3, and IL6). This process was repeated several times during two to six weeks co-culture duration (as on day 10, day 14, etc).
Immunophenotyping: At different time points the cells were detached with 1 mM EDTA (15′, 37° C.). The detached cells were washed with a PBS solution containing 1% BSA, and stained (at 4° C. for 30 min) with either fluorescein isothiocyanate (FITC) or phycoerythrin (PE)-conjugated antibodies: mesenchymal markers 105 PE, 105 FITC (Serotec), 73 PE, and 49b PE, and other, non-mesenchymal markers such as 45 FITC, 14 FITC, HLA-DR FITC (BD Biosciences Pharmngen), 34 PE (Dako, Carpenteria, Calif., USA), HLA class1 PE, (BD Biosciences Pharmingen, San Diego Calif.). The cells were then washed in the above buffer and analyzed using a FACScalibur® flow cytometer (Becton Dickinson and Co, San Jose, Calif., USA). Cells were passed at a rate of about 1000 cells/second, using saline as the sheath fluid. A 488 nm argon laser beam served as the light source for excitation. Emission of ten thousand cells was measured using logarithmic amplification and calculated using the cellQuest software.

[2] = tested on: hematopoietic stem cells (from bone marrow) co-cultured with mesenchymal cells; experiment: Long-term Mesenchymal-MNC co-culture (21 days +/- Nicotinamide, then 5 weeks cytokines only), assessed at 8 weeks; format: cell-based, human
Method: (§2) Assay for Colony Forming Units (CFU)—Cells were cloned in semi-solid, methylcellulose-containing medium supplemented with 2 IU/mL erythropoietin (Eprex, Cilag AG Int., Switzerland), stem cell factor and IL-3, both at 20 ng/mL, G-CSF and GM-CSF, both at 10 ng/mL (all from Pepro Tech, Rocky Hill, N.J.). Cultures were incubated for 14 days at 37° C. in humidified atmosphere of 5% CO2 in air.
In order to determine the long-term effects of modulators of cell fate on the long-term engraftment potential of hematopoietic stem cells, CFUc, CD34+ and CD34+/CD38− cells were assessed in co-cultured cells at 8 weeks (5 weeks after removal of nicotinamide from the medium).
The mononuclear cell fraction, prepared as described above, was expanded in co-culture with mesenchymal cells in medium supplemented with cytokines and 5 mM nicotinamide, as described hereinabove, for 21 days. After 21 days, the medium was replaced with medium supplemented with cytokines only, and expansion in co-cultures continued for another 5 weeks. At 8 weeks, the expanded cells were assessed for hematopoietic stem cell markers (CD34+ and CD34+/CD38−), and for engraftment potential (CFUc), as described hereinabove.

[3] = tested on: CD34+/CXCR4+ cells in hematopoietic stem cells co-cultured with mesenchymal cells; experiment: CXCR4 in Mesenchymal-MNC co-culture at 21 days (CD34/CXCR4 double staining); format: cell-based, human; conditions: for Number of CD34+CXCR4+ cells: 21 days, co-culture + cytokines + Nicotinamide 5 mM; for % Increase of CD34+CXCR4+ cells: vs co-culture + cytokines without nicotinamide
Excerpt: Induction of CXCR4 expression in hematopoietic stem cells results in increased sensitivity to lower levels of SDF-1, increased migration of the cells to SDF-1, improved proliferation and survival of the hematopoietic stem cells in-vitro and in-vivo, and improved engraftment potential of the induced cells. Similarly, it has been shown that blockage of CXCR4 with specific antibodies prevents engraftment of hematopoietic stem cells (Brenner, et al Stem Cells 2004; 22:1128-33; Kahn et al, Blood, 2004; 103:2942-49; Peled et al, Science 1999; 283:845-48). In order to investigate the effect of modulators of cell fate on CXCR4 expression in hematopoietic stem cells in co-culture with mesenchymal cells, the population of CD34+/CXCR4+ cell in co-cultured cells was detected and quantified by double staining with PE labeled CD34 and FITC labeled CXCR4. […] This enhanced CXCR4 expression contributes to the enhanced engraftment potential of the expanded, undifferentiated hematopoietic stem cells.

[4] = tested on: hematopoietic stem cells (mononuclear cells co-cultured with mesenchymal cells); experiment: Assay for Colony Forming Units (CFU) on 21-day mesenchymal-MNC co-culture; format: cell-based, human; conditions: Table 3 experiment; 21 days; Nicotinamide 5 mM
Excerpt: as §1
as §2, with “Cultures were incubated for 14 days at 37° C. in humidified atmosphere of 5% CO2 in air.” left out

[5] = cited from earlier work
[6] = Table 1 experiment, 21 days, Nicotinamide 5 mM
[7] = Table 2 experiment, 21 days, Nicotinamide 5 mM
[8] = Table 3 experiment, 21 days, Nicotinamide 5 mM
[9] = Table 4 experiment, 21 days, Nicotinamide 5 mM
[10] = 21 days Nicotinamide 5 mM then 5 weeks cytokines only

## NC(=O)c1cccnc1 [Nicotinamide, nicotinamide]
[1]; [6]
  CD34+CD38− (×10^4): 304 ×10^4
  CD34+Lin− (×10^4): 25 ×10^4
  TNC × 10^6: 309 × 10^6
[1]; [7]
  CD34+CD38− (×10^4): 1238 ×10^4
  CD34+Lin− (×10^4): 689 ×10^4
  TNC × 10^6: 309 × 10^6
[1]; [8]
  CD34+ (×10^4): 1553 ×10^4
  CD34+/TNC: 5.3%
  CD34+CD38− (×10^4): 82 ×10^4
  TNC × 10^6: 292 × 10^6
[1]; Table 3 experiment, 21 days, Nicotinamide 5 mM, listed as nicotinamide
  CD34+/TNC: 5.3%
[1]; [9]
  CD34+ (×10^4): 216 ×10^4
  CD34+/TNC: 1.5%
  CD34+CD38− (×10^4): 63 ×10^4
  CD34+Lin− (×10^4): 1.54 ×10^4
  TNC × 10^6: 144 × 10^6
[1]; Table 4 experiment, 21 days, Nicotinamide 5 mM, listed as nicotinamide
  CD34+/TNC: 1.5%
[1]; Tables 3 and 4, 21 days, Nicotinamide 5 mM
  greater expansion of stem cells (CD34+) relative to total nucleated cells, compared with cocultures without nicotinamide: ≤ 2.3 times
[1]; with nicotinamide, in some cases, Tables 1-5
  increase of the proportion of CD34+/38− cells and CD34+/Lin− cells in the cultures: > 10 fold
[2]; [10]
  CD34+ cells (cumulative): 264 × 10^6
  CD34+/CD38− (%): 6.3%
  CFUc (cumulative): 28 × 10^6
[2]; vs co-culture + cytokines
  Fold Increase (%) of CD34+ cells (cumulative): 235%
  Fold Increase (%) of CD34+/CD38− (%): 1050%
  Fold Increase (%) of CFUc (cumulative): 215%
[3]; Exp 1
  Number of CD34+CXCR4+ cells: 65 × 10^4
  % Increase of CD34+CXCR4+ cells: 80%
[3]; Exp 2
  Number of CD34+CXCR4+ cells: 200 × 10^4
  % Increase of CD34+CXCR4+ cells: 33%
[4]
  CFU (×10^3): 4331 ×10^3

## O=c1cc(N2CCOCC2)oc2c(-c3ccccc3)cccc12 [LY294002]
[5]
  stability in tissue culture medium: very stable
